Experiments:
[1] = molecular target: T1, VPS34 (Homo sapiens, UniProt Q8NEB9); assay: KINOMEscan at 1 μM, VPS34; assay type: binding; conditions: 1000 nM, read-out: Percent Control
T1 construct: purchased Eurofins DiscoverX KINOMEscan
Source text: (§1) Supplement cells-12-00287-s001.zip/File S2. KinomeScan data for the CAMKK2 probe and negative control.xlsx, sheet "SGC-CAMKK2-1N" | column: Percent Control

[2] = molecular target: T2, GSK3B (Homo sapiens, UniProt P49841); assay: KINOMEscan at 1 μM, GSK3B; assay type: binding; conditions: 1000 nM, read-out: Percent Control
T2 construct: purchased Eurofins DiscoverX KINOMEscan
Source text: as §1

[3] = molecular target: T3, GRK2 (Homo sapiens, UniProt P25098); assay: KINOMEscan at 1 μM, GRK2; assay type: binding; conditions: 1000 nM, read-out: Percent Control
T3 construct: purchased Eurofins DiscoverX KINOMEscan
Source text: as §1

[4] = molecular target: T4, CDKL2 (Homo sapiens, UniProt Q92772); assay: KINOMEscan at 1 μM, CDKL2; assay type: binding; conditions: 1000 nM, read-out: Percent Control
T4 construct: purchased Eurofins DiscoverX KINOMEscan
Source text: as §1

[5] = molecular target: T5, RIOK3 (Homo sapiens, UniProt O14730); assay: KINOMEscan at 1 μM, RIOK3; assay type: binding; conditions: 1000 nM, read-out: Percent Control
T5 construct: purchased Eurofins DiscoverX KINOMEscan
Source text: as §1

[6] = molecular target: T6, CLK1 (Homo sapiens, UniProt P49759); assay: KINOMEscan at 1 μM, CLK1; assay type: binding; conditions: 1000 nM, read-out: Percent Control
T6 construct: purchased Eurofins DiscoverX KINOMEscan
Source text: as §1

[7] = molecular target: T7, PRKCI (Homo sapiens, UniProt P41743); assay: KINOMEscan at 1 μM, PRKCI; assay type: binding; conditions: 1000 nM, read-out: Percent Control
T7 construct: purchased Eurofins DiscoverX KINOMEscan
Source text: as §1

[8] = molecular target: T8, ULK3 (Homo sapiens, UniProt Q6PHR2); assay: KINOMEscan at 1 μM, ULK3; assay type: binding; conditions: 1000 nM, read-out: Percent Control
T8 construct: purchased Eurofins DiscoverX KINOMEscan
Source text: as §1

[9] = molecular target: T9, PIK3CA(I800L) (Homo sapiens, UniProt P42336, I800L); assay: KINOMEscan at 1 μM, PIK3CA(I800L); assay type: binding; conditions: 1000 nM, read-out: Percent Control
T9 construct: purchased Eurofins DiscoverX KINOMEscan
Source text: as §1

[10] = molecular target: T10, PRKD2 (Homo sapiens, UniProt Q9BZL6); assay: KINOMEscan at 1 μM, PRKD2; assay type: binding; conditions: 1000 nM, read-out: Percent Control
T10 construct: purchased Eurofins DiscoverX KINOMEscan
Source text: as §1

[11] = molecular target: T11, GRK1 (Homo sapiens, UniProt Q15835); assay: KINOMEscan at 1 μM, GRK1; assay type: binding; conditions: 1000 nM, read-out: Percent Control
T11 construct: purchased Eurofins DiscoverX KINOMEscan
Source text: as §1

[12] = molecular target: T12, WNK3 (Homo sapiens, UniProt Q9BYP7); assay: KINOMEscan at 1 μM, WNK3; assay type: binding; conditions: 1000 nM, read-out: Percent Control
T12 construct: purchased Eurofins DiscoverX KINOMEscan
Source text: as §1

[13] = molecular target: T13, CSNK2A2 (Homo sapiens, UniProt P19784); assay: KINOMEscan at 1 μM, CSNK2A2; assay type: binding; conditions: 1000 nM, read-out: Percent Control
T13 construct: purchased Eurofins DiscoverX KINOMEscan
Source text: as §1

[14] = molecular target: T14, EGFR(L747-E749del, A750P) (Homo sapiens, UniProt P00533, A750P/DEL747-749); assay: KINOMEscan binding assay at 1 μM, EGFR(L747-E749del, A750P); conditions: Compound Concentration 1000 nM; read-out: Percent Control
T14 construct: purchased Eurofins DiscoverX KINOMEscan
Source text: as §1

[15] = molecular target: T15, FLT3(D835Y) (Homo sapiens, UniProt P36888, D835Y); assay: KINOMEscan binding assay at 1 μM, FLT3(D835Y); conditions: Compound Concentration 1000 nM; read-out: Percent Control
T15 construct: purchased Eurofins DiscoverX KINOMEscan
Source text: as §1

[16] = molecular target: T16, ITK (Homo sapiens, UniProt Q08881); assay: KINOMEscan binding assay at 1 μM, ITK; conditions: Compound Concentration 1000 nM; read-out: Percent Control
T16 construct: purchased Eurofins DiscoverX KINOMEscan
Source text: as §1

[17] = molecular target: T17, LYN (Homo sapiens, UniProt P07948); assay: KINOMEscan binding assay at 1 μM, LYN; conditions: Compound Concentration 1000 nM; read-out: Percent Control
T17 construct: purchased Eurofins DiscoverX KINOMEscan
Source text: as §1

[18] = molecular target: T18, MLK3 (Homo sapiens, UniProt Q16584); assay: KINOMEscan binding assay at 1 μM, MLK3; conditions: Compound Concentration 1000 nM; read-out: Percent Control
T18 construct: purchased Eurofins DiscoverX KINOMEscan
Source text: as §1

[19] = molecular target: T19, MAP4K3 (Homo sapiens, UniProt Q8IVH8); assay: KINOMEscan 1 μM, MAP4K3; assay type: binding; conditions: 1000 nM; Entrez MAP4K3; read-out: Percent Control
T19 construct: purchased Eurofins DiscoverX KINOMEscan
Source text: (§2) Supplement cells-12-00287-s001.zip/File S2. KinomeScan data for the CAMKK2 probe and negative control.xlsx, sheet "SGC-CAMKK2-1" | column: Percent Control

[20] = molecular target: T20, SGK2 (Homo sapiens, UniProt Q9HBY8); assay: KINOMEscan 1 μM, SGK2; assay type: binding; conditions: 1000 nM; Entrez SGK2; read-out: Percent Control
T20 construct: purchased Eurofins DiscoverX KINOMEscan
Source text: as §2

[21] = molecular target: T21, TAOK1 (Homo sapiens, UniProt Q7L7X3); assay: KINOMEscan 1 μM, TAOK1; assay type: binding; conditions: 1000 nM; Entrez TAOK1; read-out: Percent Control
T21 construct: purchased Eurofins DiscoverX KINOMEscan
Source text: as §2

[22] = molecular target: T22, INSRR (Homo sapiens, UniProt P14616); assay: KINOMEscan 1 μM, INSRR; assay type: binding; conditions: 1000 nM; Entrez INSRR; read-out: Percent Control
T22 construct: purchased Eurofins DiscoverX KINOMEscan
Source text: as §2

[23] = molecular target: T23, GRK7 (Homo sapiens, UniProt Q8WTQ7); assay: KINOMEscan 1 μM, GRK7; assay type: binding; conditions: 1000 nM; Entrez GRK7; read-out: Percent Control
T23 construct: purchased Eurofins DiscoverX KINOMEscan
Source text: as §2

[24] = molecular target: T24, ABL1(E255K)-phosphorylated (Homo sapiens, UniProt P00519, E255K); assay: KINOMEscan 1 μM, ABL1(E255K)-phosphorylated; assay type: binding; conditions: 1000 nM; Entrez ABL1; read-out: Percent Control
T24 construct: purchased Eurofins DiscoverX KINOMEscan
Source text: as §2

[25] = molecular target: T25, CAMK2D (Homo sapiens, UniProt Q13557); assay: KINOMEscan 1 μM, CAMK2D; assay type: binding; conditions: 1000 nM; Entrez CAMK2D; read-out: Percent Control
T25 construct: purchased Eurofins DiscoverX KINOMEscan
Source text: as §2

[26] = molecular target: T26, BUB1 (Homo sapiens, UniProt O43683); assay: KINOMEscan 1 μM, BUB1; assay type: binding; conditions: 1000 nM; Entrez BUB1; read-out: Percent Control
T26 construct: purchased Eurofins DiscoverX KINOMEscan
Source text: as §2

[27] = molecular target: T27, CDK2 (Homo sapiens, UniProt P24941); assay: KINOMEscan 1 μM, CDK2; assay type: binding; conditions: 1000 nM; Entrez CDK2; read-out: Percent Control
T27 construct: purchased Eurofins DiscoverX KINOMEscan
Source text: as §2

[28] = molecular target: T28, ERK5 (Homo sapiens, UniProt Q13164); assay: KINOMEscan 1 μM, ERK5; assay type: binding; conditions: 1000 nM; Entrez MAPK7; read-out: Percent Control
T28 construct: purchased Eurofins DiscoverX KINOMEscan
Source text: as §2

[29] = molecular target: T29, MST3 (Homo sapiens, UniProt Q9Y6E0); assay: KINOMEscan 1 μM, MST3; assay type: binding; conditions: 1000 nM; Entrez STK24; read-out: Percent Control
T29 construct: purchased Eurofins DiscoverX KINOMEscan
Source text: as §2

[30] = molecular target: T30, NEK5 (Homo sapiens, UniProt Q6P3R8); assay: KINOMEscan 1 μM, NEK5; assay type: binding; conditions: 1000 nM; Entrez NEK5; read-out: Percent Control
T30 construct: purchased Eurofins DiscoverX KINOMEscan
Source text: as §2

[31] = molecular target: T31, PDGFRB (Homo sapiens, UniProt P09619); assay: DiscoverX KINOMEscan binding assay at 1 μM, PDGFRB; conditions: Compound Concentration 1000 nM, read-out: Percent Control
T31 construct: purchased Eurofins DiscoverX KINOMEscan
Source text: as §2

[32] = molecular target: T32, RPS6KA5(Kin.Dom.2-C-terminal) (Homo sapiens, UniProt O75582); assay: DiscoverX KINOMEscan binding assay at 1 μM, RPS6KA5(Kin.Dom.2-C-terminal); conditions: Compound Concentration 1000 nM, read-out: Percent Control
T32 construct: RPS6KA5(Kin.Dom.2-C-terminal); purchased Eurofins DiscoverX KINOMEscan
Source text: as §2

[33] = molecular target: T33, SBK1 (Homo sapiens, UniProt Q52WX2); assay: DiscoverX KINOMEscan binding assay at 1 μM, SBK1; conditions: Compound Concentration 1000 nM, read-out: Percent Control
T33 construct: purchased Eurofins DiscoverX KINOMEscan
Source text: as §2

[34] = molecular target: T34, YSK1 (Homo sapiens, UniProt O00506); assay: DiscoverX KINOMEscan binding assay at 1 μM, YSK1; conditions: YSK1 (STK25); Compound Concentration 1000 nM; read-out: Percent Control
T34 construct: purchased Eurofins DiscoverX KINOMEscan
Source text: as §2

T7 sequence (P41743 whole entry): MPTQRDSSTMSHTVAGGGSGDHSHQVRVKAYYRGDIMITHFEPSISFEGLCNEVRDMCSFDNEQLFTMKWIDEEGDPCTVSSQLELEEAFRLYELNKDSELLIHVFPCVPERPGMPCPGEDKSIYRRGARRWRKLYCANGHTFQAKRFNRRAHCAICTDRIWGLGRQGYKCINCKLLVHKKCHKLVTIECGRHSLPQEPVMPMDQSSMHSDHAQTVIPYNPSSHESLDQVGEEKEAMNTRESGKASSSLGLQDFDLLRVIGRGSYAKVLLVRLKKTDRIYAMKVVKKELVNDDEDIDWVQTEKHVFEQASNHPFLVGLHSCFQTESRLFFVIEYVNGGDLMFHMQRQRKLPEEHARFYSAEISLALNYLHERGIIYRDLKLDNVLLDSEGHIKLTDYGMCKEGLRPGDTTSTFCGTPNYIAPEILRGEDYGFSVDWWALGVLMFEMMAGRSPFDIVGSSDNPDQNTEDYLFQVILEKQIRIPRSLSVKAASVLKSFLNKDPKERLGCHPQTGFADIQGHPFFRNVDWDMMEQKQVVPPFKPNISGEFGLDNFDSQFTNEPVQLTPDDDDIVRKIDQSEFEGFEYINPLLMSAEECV
T12 sequence (Q9BYP7 whole entry): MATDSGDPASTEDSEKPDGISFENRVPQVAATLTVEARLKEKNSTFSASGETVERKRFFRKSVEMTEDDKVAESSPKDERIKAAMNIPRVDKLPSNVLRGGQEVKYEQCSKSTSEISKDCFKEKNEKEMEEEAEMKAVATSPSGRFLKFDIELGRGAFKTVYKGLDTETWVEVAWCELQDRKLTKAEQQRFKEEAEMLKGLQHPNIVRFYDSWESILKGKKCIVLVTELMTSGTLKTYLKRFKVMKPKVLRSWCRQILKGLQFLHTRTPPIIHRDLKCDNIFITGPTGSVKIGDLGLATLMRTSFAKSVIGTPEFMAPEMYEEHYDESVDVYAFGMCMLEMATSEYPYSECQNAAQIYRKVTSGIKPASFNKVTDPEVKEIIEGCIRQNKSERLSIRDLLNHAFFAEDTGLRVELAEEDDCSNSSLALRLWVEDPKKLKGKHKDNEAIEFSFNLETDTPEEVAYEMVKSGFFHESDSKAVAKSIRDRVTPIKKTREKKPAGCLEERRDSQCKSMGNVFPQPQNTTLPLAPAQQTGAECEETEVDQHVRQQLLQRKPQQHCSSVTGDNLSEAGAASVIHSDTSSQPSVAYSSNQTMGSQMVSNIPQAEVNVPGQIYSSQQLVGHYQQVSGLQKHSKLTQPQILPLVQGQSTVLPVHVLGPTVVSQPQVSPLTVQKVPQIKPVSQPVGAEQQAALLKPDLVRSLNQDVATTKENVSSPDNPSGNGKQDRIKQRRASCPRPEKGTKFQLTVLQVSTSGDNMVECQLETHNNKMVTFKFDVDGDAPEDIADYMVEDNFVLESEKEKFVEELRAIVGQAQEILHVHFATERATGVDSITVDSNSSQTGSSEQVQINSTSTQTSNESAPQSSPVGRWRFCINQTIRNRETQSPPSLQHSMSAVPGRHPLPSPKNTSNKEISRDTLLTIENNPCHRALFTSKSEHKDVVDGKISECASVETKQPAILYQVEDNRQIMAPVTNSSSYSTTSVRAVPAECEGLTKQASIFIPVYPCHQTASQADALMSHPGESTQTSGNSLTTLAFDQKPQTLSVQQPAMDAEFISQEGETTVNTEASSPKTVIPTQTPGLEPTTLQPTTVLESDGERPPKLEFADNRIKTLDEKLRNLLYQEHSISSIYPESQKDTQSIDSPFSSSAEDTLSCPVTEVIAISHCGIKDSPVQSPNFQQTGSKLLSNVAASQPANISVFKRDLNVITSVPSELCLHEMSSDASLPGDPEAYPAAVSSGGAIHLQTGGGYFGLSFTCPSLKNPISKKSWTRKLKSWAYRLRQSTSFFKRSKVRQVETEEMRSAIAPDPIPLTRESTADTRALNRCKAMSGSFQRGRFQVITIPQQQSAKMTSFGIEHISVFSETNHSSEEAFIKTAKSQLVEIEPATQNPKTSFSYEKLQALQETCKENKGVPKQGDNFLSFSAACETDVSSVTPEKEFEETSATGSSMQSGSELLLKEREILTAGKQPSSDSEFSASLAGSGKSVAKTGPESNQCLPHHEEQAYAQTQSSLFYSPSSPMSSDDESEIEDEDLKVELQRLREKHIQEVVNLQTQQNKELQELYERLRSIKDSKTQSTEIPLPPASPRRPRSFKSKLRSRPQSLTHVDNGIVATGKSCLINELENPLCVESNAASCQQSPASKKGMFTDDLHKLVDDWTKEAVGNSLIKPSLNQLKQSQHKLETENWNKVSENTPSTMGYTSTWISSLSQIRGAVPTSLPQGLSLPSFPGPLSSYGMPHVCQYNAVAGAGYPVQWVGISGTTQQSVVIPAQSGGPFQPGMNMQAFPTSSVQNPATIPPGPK
T25 sequence (Q13557 whole entry): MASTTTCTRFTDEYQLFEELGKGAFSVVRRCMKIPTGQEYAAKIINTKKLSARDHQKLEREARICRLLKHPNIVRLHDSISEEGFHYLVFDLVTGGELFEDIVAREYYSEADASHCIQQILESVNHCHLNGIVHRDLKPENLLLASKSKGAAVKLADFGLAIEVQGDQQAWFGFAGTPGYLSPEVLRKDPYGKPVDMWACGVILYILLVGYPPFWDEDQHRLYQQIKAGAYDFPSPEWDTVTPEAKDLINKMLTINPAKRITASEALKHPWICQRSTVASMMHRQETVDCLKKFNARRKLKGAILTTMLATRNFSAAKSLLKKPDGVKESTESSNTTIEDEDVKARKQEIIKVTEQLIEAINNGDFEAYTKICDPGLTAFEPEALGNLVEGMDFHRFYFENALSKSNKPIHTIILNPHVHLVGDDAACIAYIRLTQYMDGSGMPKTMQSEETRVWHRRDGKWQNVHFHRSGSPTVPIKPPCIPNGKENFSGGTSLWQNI
T18 sequence (Q16584 whole entry): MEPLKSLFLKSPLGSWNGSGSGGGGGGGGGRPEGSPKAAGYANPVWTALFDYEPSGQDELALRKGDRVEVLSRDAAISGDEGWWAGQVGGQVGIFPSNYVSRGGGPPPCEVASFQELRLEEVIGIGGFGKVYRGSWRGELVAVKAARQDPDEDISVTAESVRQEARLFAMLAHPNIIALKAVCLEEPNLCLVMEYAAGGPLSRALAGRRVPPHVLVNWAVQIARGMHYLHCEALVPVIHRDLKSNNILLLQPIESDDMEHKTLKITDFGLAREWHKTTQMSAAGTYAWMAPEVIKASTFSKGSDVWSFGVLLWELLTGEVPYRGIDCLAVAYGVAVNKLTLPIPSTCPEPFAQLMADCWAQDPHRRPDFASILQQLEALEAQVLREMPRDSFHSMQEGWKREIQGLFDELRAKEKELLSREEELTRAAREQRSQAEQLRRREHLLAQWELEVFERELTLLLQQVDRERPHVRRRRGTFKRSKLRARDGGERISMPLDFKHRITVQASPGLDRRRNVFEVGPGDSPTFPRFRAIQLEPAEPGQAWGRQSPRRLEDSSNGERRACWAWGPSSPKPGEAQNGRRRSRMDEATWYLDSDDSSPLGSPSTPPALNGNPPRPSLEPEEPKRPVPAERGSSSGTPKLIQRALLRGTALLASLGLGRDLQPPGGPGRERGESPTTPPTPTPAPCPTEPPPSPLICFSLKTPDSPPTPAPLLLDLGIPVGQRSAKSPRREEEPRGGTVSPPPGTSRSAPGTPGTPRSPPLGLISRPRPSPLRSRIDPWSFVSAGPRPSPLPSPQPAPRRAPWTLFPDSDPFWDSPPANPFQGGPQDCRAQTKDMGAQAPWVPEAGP
T2 sequence (P49841 whole entry): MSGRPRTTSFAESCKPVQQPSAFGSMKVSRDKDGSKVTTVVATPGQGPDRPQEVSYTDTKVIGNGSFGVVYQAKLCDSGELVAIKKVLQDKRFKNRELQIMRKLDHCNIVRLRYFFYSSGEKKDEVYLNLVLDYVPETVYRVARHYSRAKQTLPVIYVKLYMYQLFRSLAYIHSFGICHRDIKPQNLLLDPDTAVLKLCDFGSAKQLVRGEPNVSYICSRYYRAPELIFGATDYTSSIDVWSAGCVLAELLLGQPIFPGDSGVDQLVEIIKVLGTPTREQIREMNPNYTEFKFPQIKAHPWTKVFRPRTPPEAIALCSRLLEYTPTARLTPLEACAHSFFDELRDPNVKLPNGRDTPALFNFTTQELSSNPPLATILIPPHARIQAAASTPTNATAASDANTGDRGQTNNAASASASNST
T5 sequence (O14730 whole entry): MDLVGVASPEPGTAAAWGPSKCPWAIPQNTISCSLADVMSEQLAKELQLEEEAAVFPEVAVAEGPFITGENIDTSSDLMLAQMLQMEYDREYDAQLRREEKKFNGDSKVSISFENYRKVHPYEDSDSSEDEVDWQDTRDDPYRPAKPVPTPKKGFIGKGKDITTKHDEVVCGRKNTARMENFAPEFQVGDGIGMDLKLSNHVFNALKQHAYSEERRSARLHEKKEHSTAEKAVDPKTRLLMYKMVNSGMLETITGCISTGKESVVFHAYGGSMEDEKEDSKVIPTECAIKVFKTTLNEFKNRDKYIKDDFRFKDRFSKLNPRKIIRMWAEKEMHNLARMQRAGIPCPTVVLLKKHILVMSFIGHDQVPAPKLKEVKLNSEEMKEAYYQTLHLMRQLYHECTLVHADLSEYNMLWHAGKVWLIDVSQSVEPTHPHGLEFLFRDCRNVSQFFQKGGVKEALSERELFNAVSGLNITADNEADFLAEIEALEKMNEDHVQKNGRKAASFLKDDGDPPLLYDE
T14 sequence (P00533 with tags, fused parts or gaps DEL747-749/A750P limits assumed): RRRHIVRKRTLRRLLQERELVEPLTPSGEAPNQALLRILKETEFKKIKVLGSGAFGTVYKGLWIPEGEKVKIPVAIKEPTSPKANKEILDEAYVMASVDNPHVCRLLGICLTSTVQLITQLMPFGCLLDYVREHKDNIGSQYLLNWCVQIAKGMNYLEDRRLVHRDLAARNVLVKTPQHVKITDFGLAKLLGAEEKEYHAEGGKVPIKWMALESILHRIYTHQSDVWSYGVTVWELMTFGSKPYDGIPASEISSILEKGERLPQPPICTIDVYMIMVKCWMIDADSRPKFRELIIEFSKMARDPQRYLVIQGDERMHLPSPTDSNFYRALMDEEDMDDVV

Question: For `O=C(O)c1ccc(-c2coc3ncc(-c4ccccc4)cc23)cc1Cl` [SGC-CAMKK2-1N (UNC-YL-83)], which remaining binding at 1 µM [1] is on record?
Answer: The remaining binding at 1 µM was 44%.

Question: And the remaining binding at 1 µM [2]?
Answer: Its remaining binding at 1 µM is 47%.

Question: What about the remaining binding at 1 µM [3] of the same compound?
Answer: Its remaining binding at 1 µM is 55%.

Question: What about the remaining binding at 1 µM [4] of the same compound?
Answer: Its remaining binding at 1 µM is 74%.

Question: And the remaining binding at 1 µM [5]?
Answer: Its remaining binding at 1 µM is 76%.

Question: What about the remaining binding at 1 µM [6] of the same compound?
Answer: Its remaining binding at 1 µM is 79%.

Question: What about the remaining binding at 1 µM [7] of the same compound?
Answer: The remaining binding at 1 µM was 79%.

Question: And the remaining binding at 1 µM [8]?
Answer: Its remaining binding at 1 µM is 82%.

Question: What about the remaining binding at 1 µM [9] of the same compound?
Answer: Its remaining binding at 1 µM is 87%.

Question: What about the remaining binding at 1 µM [10] of the same compound?
Answer: The remaining binding at 1 µM was 91%.

Question: What about the remaining binding at 1 µM [11] of the same compound?
Answer: Its remaining binding at 1 µM is 92%.

Question: And the remaining binding at 1 µM [12]?
Answer: Its remaining binding at 1 µM is 95%.

Question: What about the remaining binding at 1 µM [13] of the same compound?
Answer: Its remaining binding at 1 µM is 98%.

Question: And the remaining binding at 1 µM [14]?
Answer: Its remaining binding at 1 µM is 100%.

Question: What about the remaining binding at 1 µM [15] of the same compound?
Answer: Its remaining binding at 1 µM is 100%.

Question: And the remaining binding at 1 µM [16]?
Answer: Its remaining binding at 1 µM is 100%.

Question: What about the remaining binding at 1 µM [17] of the same compound?
Answer: Its remaining binding at 1 µM is 100%.

Question: What about the remaining binding at 1 µM [18] of the same compound?
Answer: The remaining binding at 1 µM was 100%.

Question: Which results are given for `Cc1cccc(-c2cnc3occ(-c4ccc(C(=O)O)c(C5CCCC5)c4)c3c2)c1` [SGC-CAMKK2-1 (YL-36)]?
Answer: remaining binding at 1 µM [19]: 78%; remaining binding at 1 µM [20]: 78%; remaining binding at 1 µM [21]: 78%; remaining binding at 1 µM [22]: 88%; remaining binding at 1 µM [23]: 94%; remaining binding at 1 µM [24]: 98%; remaining binding at 1 µM [25]: 98%; remaining binding at 1 µM [26]: 100%; remaining binding at 1 µM [27]: 100%; remaining binding at 1 µM [28]: 100%; remaining binding at 1 µM [29]: 100%; remaining binding at 1 µM [30]: 100%; remaining binding at 1 µM [31]: 100%; remaining binding at 1 µM [32]: 100%; remaining binding at 1 µM [33]: 100%; remaining binding at 1 µM [34]: 100%
